“And” between values parts separate entries of the source, which are not always exact repeats. Equal entries are not always repeated. Where two headings read alike, the source gives them in different places.
How the values were obtained:
[1] = Mouse Hepatocyte Stability Assay; type: in vitro ADME; details: CD-1, cryopreserved hepatocytes
Experimental: (§1) The metabolic stability of Compound 1 was evaluated using cryopreserved hepatocytes from mice, rats, dogs, cynomolgus monkeys, and humans.
(§2) 50 μL of 1 mM intermediate solutions for each test compound was prepared by adding 5 μL of 10 mM stock solution to 45 μL of a 1:1 mixture of water and acetonitrile. A 2 μM working stocks for each test compound were prepared in incubation media, InvitroGRO™ KHB (Bio IVT, Westbury, NY, USA), by adding 2 μL of 1 mM intermediate stock to 998 μL of incubation media.
(§3) To thaw the hepatocytes, InvitroGRO™ HT thawing medium (BioIVT, Westbury, NY, USA) was prewarmed to 37° C., and 48 mL of warmed thawing medium was transferred to a sterile 50 mL conical tube. The hepatocyte vial was removed from the liquid nitrogen Dewar, and gently thawed in a water bath at 37° C. for 1-2 minutes, then the contents of the vial were emptied into a conical tube with prewarmed InvitroGRO HT medium. 1 mL of prewarmed InvitroGRO HT medium was added to each emptied hepatocyte vial to resuspend any remaining cells, and the contents were pipetted into the hepatocyte suspension. The tube containing the hepatocyte suspension was centrifuged at 50*g for 5 minutes. The supernatant was removed carefully, and the remaining pellet was resuspended by adding 1 mL of incubation media, InvitroGRO KHB, and gently shaking until there were no clumps.
(§4) Cell viability was determined using the trypan blue method. 25 μL of hepatocyte cell suspension was added to a trypan blue (TB) solution (containing 775 μL InvitroGRO KHB and 200 μL of Trypan Blue). Cell count was taken using a hemacytometer.
(§5) For mouse hepatocytes, 200 μL of hepatocytes (0.8×10^6 cells/mL) were added to the wells of a 48 well plate (Catalog No. 92048, TPP Techno Plastic Products AG, Trasadingen, Switzerland) and pre-incubated for 30 minutes at 37° C. For rat, dog, monkey, […], 200 μL of hepatocytes (2×10^6 cells/mL) were added to the wells of a 48 well plate (Catalog No. 92048, TPP Techno Plastic Products AG, Trasadingen, Switzerland) and pre-incubated for 30 minutes at 37° C.
(§6) For all species of hepatocytes, once the pre-incubation period was complete, 200 μL of 2 μM working stock of test compound was added to the wells of the plate, and the plate was vortexed on a Vibramax™ 100 (P/N 544-21200-00, Heidolph Instruments GmbH & Co. KG, Schwabach, Germany) at 500 rpm in a 37° C. CO2 incubator (Model No. 51026280, ThermoFisher Scientific, Waltham, MA, USA). At each time point of 0, 15, 30, 60, 90, and 120 minutes, 50 μL of incubation mixture was precipitated with 200 μL of acetonitrile containing internal standard.
(§7) At the end of the experiment, the samples were centrifuged at 4000 rpm for 10 minutes. The supernatant was collected and diluted with an equal amount of water, and vortexed for 5 minutes at 900 rpm in MixMate® (Model No. 5353, Eppendorf SE, Hamburg, Germany).
(§8) The supernatant samples were submitted for LC-MS/MS analysis.
(§9) Calculations of the results included the following: […]

[2] = system: cryopreserved hepatocytes from CD-1 mice; test: Mouse Hepatocyte Stability Assay; type: in vitro ADME
Experimental: as §1, §2, §3, §4, §5, §6, §7, §8, §9

CRBN-DDB1 = target: T1, CRBN-DDB1 (Homo sapiens, UniProt Q96SW2); test: Fluorescence polarization competition binding assay, CRBN-DDB1; details: FP competition
T1 construct: His; purchased Wuxi Biortus Biosciences Co., Ltd
Experimental: Fluorescence polarization (FP) competition experiments were used to determine the binding affinity of Compound 1 to purified CRBN-DDB1 protein.
Human Histidine (His) CRBN and non-tag DDB1 (CRBN-DDB1 (5.64 mg/mL in 25 mM HEPES, 300 mM NaCl, 1 mM TCEP, pH 7.5)) was purchased from Wuxi Biortus Biosciences Co., Ltd. (Jiangsu, China) and stored at −80° C. until use. Potent CRBN-DDB1 ligand was chemically labeled with the commercially available fluorophore Alexa Fluor™ 647 (Invitrogen, Waltham, MA, USA) following manufacturer's instructions. Fluorescently labelled CRBN-DDB1 binding compound at 0.3 mM in DMSO was stored at −20° C.
The determination of the binding constant (Kd) of Compound 1 to CRBN-DDB1 was carried out using an established, sensitive and quantitative in vitro fluorescence polarization (FP) binding assay (Nasir & Jolley, 1999). […]
A 20 μL mixture containing 150 nM CRBN-DDB1 and 5 nM probe dye in 50 mM HEPES, pH 7.4, 200 mM NaCl, 1 mM TCEP and 0.05% Pluronic Acid F-127 was added to wells containing compound and incubated at room temperature for 1.5 hours. […] Matching control plates excluding CRBN-DDB1 were used to correct for background fluorescence (Shapiro et al., 2009). Plates were read on an EnVision® multimode plate reader (Catalog No. 2104-0010, Perkin Elmer Inc., Dumfries, VA, USA) with Cy5 polarization filters and mirror. […]

**Q.** Which results are given for `COc1cc(-c2cn(C)c(=O)c(C)c2C)cc(OC)c1CN1CC[C@H](N2CCN(c3ccc(N[C@H]4CCC(=O)NC4=O)cc3F)CC2)C(F)(F)C1` [Compound 1, (S)-3-((4-(4-((S)-1-(2,6-dimethoxy-4-(1,4,5-trimethyl-6-oxo-1,6-dihydropyridin-3-yl)benzyl)-3,3-difluoropiperidin-4-yl)piperazin-1-yl)-3-fluorophenyl)amino)-piperidine-2,6-dione]?
**A.** half-life at 1 µM [1]: > 120 min; hepatocyte CLint at 1 µM ([1]; read-out: CL int cells): 4.26 µL/min/1e6 cells; CLh int in vivo [2]: 44.94 mL/min/Kg body wt.; CLhb scaled well stirred [2]: 30.0 mL/min/kg body wt.; Kd (CRBN-DDB1; each occasion in duplicate, read-out: Kd, individual test occasion): 2100 nM and 1600 nM and 2300 nM; Kd (CRBN-DDB1; n=3, read-out: Kd (geometric mean), binding to CRBN-DDB1): 2000 nM
